# From PMC7501296, “Rapid and direct control of target protein levels with VHL-recruiting dTAG molecules” (Nature Communications, 2020)
# Where “and” joins values, the source holds several entries; their conditions need not be identical. Equal entries are not always repeated. Where two headings read alike, the source gives them in different places.
# Key:
# [1] = test system: PATU-8902 FKBP12^F36V-KRAS^G12V; KRAS^-/- clone; test: Antiproliferation, PATU-8902 FKBP12F36V-KRASG12V; KRAS-/- clone, 3D-spheroid (CellTiter-Glo); assay type: cell-based; details: 120 h; for DMSO-normalized antiproliferation: FKBP12F36V-KRASG12V, KRAS-/-, 3D-spheroid
# Method in brief: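 Viability of cells grown as ultra-low adherent 3D-spheroids was determined with CellTiter-Glo (Promega). Luminescence readings were taken on an Envision 2104 plate reader (PerkinElmer) and a Fluostar Omega Reader (BMG Labtech), and the resulting data were processed in GraphPad PRISM v8 to assess effects on cell proliferation.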
# [2] = Pharmacokinetic evaluation in mice; assay type: in vivo, C57BL/6J male mice
# Excerpt: For IP injections, dTAG-13 and dTAG^V-1 were formulated by dissolving into DMSO and then diluting with 20% solutol (Sigma): 0.9% sterile saline (Moltox) (w:v) with the final formulation containing 5% DMSO. […] Formulations were stable at room temperature for 7 days. For IV injections, dTAG-13 and dTAG^V-1 were formulated by dissolving into DMSO and then diluting with 5% solutol (Sigma): 0.9% sterile saline (Moltox) (w:v) with the final formulation containing 5% DMSO. All procedures for PK studies were compliant with ethical regulations for animal testing and research, and were approved by and performed in accordance with standards of the Institute Animal Care and Use Committee (IACUC) at Scripps Florida. Housing conditions for mice at Scripps Florida were as follows: lights on = 7 AM, lights off = 7 PM, average ambient temperature = 72 °F, and average humidity = 45%. PK was assessed in 8-week-old C57BL/6J male mice (Jackson Laboratory, #000664) with blood collected at 0.08, 0.25, 0.5, 1, 2, 4, 6, and 8 h (2 mg kg^−1 dTAG-13 intravenous (IV) tail vein, 10 mg kg^−1 dTAG-13 intraperitoneal (IP), and 2 mg kg^−1 dTAG^V-1 IV tail vein administrations) and 0.25, 0.5, 1, 2, 4, 6, 8, 24 and 48 h (2 mg kg^−1 dTAG^V-1 IP and 10 mg kg^−1 dTAG^V-1 IP administrations). Plasma was generated by centrifugation and plasma concentrations were determined by LC-MS/MS following the mass transition 49600à340 AMU. PK parameters were calculated using Phoenix WinNonlin to determine peak plasma concentration (Cmax), oral bioavailability (%F), exposure (AUC), half-life (t1/2), clearance (CL), and volume of distribution (Vd).
# [3] = target: T1, FKBP12^WT-Nluc (Homo sapiens, UniProt P62942); test: FKBP12WT-Nluc dual luciferase assay (293FT); assay type: cell-based; details: 293FT, 24 h
# T1 construct: expressed in transfected cells; host or cells: 293FT
# Method in brief: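 293FT cells expressing FKBP12^WT-Nluc or FKBP12^F36V-Nluc with Fluc were treated with compound for 24 h at 37 °C. Fluc, then Nluc, luminescence was read with Dual-Glo reagents. Values are DMSO-normalised Nluc/Fluc ratios.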
# [4] = test system: PATU-8902 FKBP12^F36V-KRAS^G12V; KRAS^-/- clone; test: Antiproliferation, PATU-8902 FKBP12F36V-KRASG12V; KRAS-/- clone, 2D-monolayer (CellTiter-Glo); assay type: cell-based
# [5] = test system: PATU-8902 LACZ-FKBP12^F36V clone; test: Antiproliferation, PATU-8902 LACZ-FKBP12F36V clone, 3D-spheroid (CellTiter-Glo); assay type: cell-based; details: 120 h
# Method in brief: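 Viability of cells grown as ultra-low adherent 3D-spheroids was determined with the CellTiter-Glo reagent (Promega). Luminescence was read on either an Envision 2104 plate reader (PerkinElmer) or a Fluostar Omega Reader (BMG Labtech). The resulting data were analyzed with GraphPad PRISM v8.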
# [6] = log10[compound] (M) -5.69897, single replicates
# [7] = log10[compound] (M) -6.19897, single replicates
# [8] = log10[compound] (M) -6.69897, single replicates
# [9] = log10[compound] (M) -7.19897, single replicates
# [10] = log10[compound] (M) -7.69897, single replicates
# [11] = intraperitoneal administration at 10 mg kg^−1
# [12] = male, C57BL/6J, mouse, plasma, IP, 2 mg kg-1
# [13] = male, C57BL/6J, mouse, plasma, IP, 10 mg kg-1
# [14] = male, C57BL/6J, mouse, plasma, IV, 2 mg kg-1
# T1 sequence (P62942 2-108 limits assumed): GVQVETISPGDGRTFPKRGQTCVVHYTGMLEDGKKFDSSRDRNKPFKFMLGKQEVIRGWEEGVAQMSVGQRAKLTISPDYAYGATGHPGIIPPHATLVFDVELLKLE
smiles,measurement,setting,value
CC[C@H](C(=O)N1CCCC[C@H]1C(=O)O[C@H](CCc1ccc(OC)c(OC)c1)c1ccccc1OCC(=O)NCCCCCCC(=O)N[C@H](C(=O)N1C[C@H](O)C[C@H]1C(=O)N[C@@H](C)c1ccc(-c2scnc2C)cc1)C(C)(C)C)c1cc(OC)c(OC)c(OC)c1 [dTAG^V-1],Cell proliferation upon FKBP12F36V-KRASG12V degradation,[1]; 2D-monolayer and 3D-spheroid cultures,diminished cell proliferation
same,DMSO-normalized antiproliferation,[1]; [6],14.2222 and 15.5085 and 18.1313 and 19.3564
same,DMSO-normalized antiproliferation,[1]; [7],19.4455 and 15.9874 and 15.9651 and 15.7814
same,DMSO-normalized antiproliferation,[1]; [8],16.8171 and 16.5888 and 12.056 and 15.8705
same,DMSO-normalized antiproliferation,[1]; [9],11.0759 and 11.8444 and 17.6524 and 14.6677
same,DMSO-normalized antiproliferation,[1]; [10],20.7875 and 17.3072 and 22.4693 and 16.2436
same,CL,"[2]; IP, 2 mg kg-1",10.7 mL/min/kg
same,CL,"[2]; IP, 10 mg kg-1",9.05 mL/min/kg
same,exposure (AUCinf),[2]; [11],"18,517 h ng mL^−1"
same,half-life (T1/2),[2]; [11],4.43 h
same,AUC(0-inf),[2]; [12],3140 ng·h/mL
same,AUC(0-t),[2]; [12],2240 ng·h/mL
same,half-life,[2]; [12],3.64 h
same,Cmax,"[2]; male, C57BL/6J, mouse, plasma, IP, 2 mg kg-1, read-out: Cmax",595 ng/mL
same,Tmax,"[2]; male, C57BL/6J, mouse, plasma, IP, 2 mg kg-1, read-out: Tmax",1.67 h
same,AUC(0-inf),[2]; [13],18500 ng·h/mL
same,AUC(0-t),[2]; [13],18100 ng·h/mL
same,half-life,[2]; [13],4.43 h
same,Cmax,"[2]; male, C57BL/6J, mouse, plasma, IP, 10 mg kg-1, read-out: Cmax",2120 ng/mL
same,Tmax,"[2]; male, C57BL/6J, mouse, plasma, IP, 10 mg kg-1, read-out: Tmax",2 h
same,AUC(0-inf),[2]; [14],3330 ng·h/mL
same,AUC(0-t),[2]; [14],3240 ng·h/mL
same,clearance,[2]; [14],10.1 mL/min/kg
same,half-life,[2]; [14],3.02 h
same,Cmax,"[2]; male, C57BL/6J, mouse, plasma, IV, 2 mg kg-1, read-out: Cmax",7780 ng/mL
same,Tmax,"[2]; male, C57BL/6J, mouse, plasma, IV, 2 mg kg-1, read-out: Tmax",0.08 h
same,Vd,"[2]; male, C57BL/6J, mouse, plasma, IV, 2 mg kg-1, read-out: Vss",0.56 L/kg
same,Effect on FKBP12WT-Nluc (in words),[3],no effects
same,DMSO-normalized antiproliferation,[4]; log10[compound] (M) -4.69897,20.6105 and 17.3638 and 20.4315 and 22.7846
same,DMSO-normalized antiproliferation,[4]; log10[compound] (M) -5.19897,21.3993 and 17.4773 and 18.2 and 18.6602
same,DMSO-normalized antiproliferation,[4]; log10[compound] (M) -5.69897,16.8112 and 15.7934 and 16.8516 and 16.7935
same,DMSO-normalized antiproliferation,"[4]; log10[compound] (M) -5.69897, replicate values",4.6597 and 4.418 and 4.149 and 3.87
same,DMSO-normalized antiproliferation,[4]; log10[compound] (M) -6.19897,20.0987 and 17.9241 and 20.6309 and 19.478
same,DMSO-normalized antiproliferation,"[4]; log10[compound] (M) -6.19897, replicate values",5.446 and 5.94 and 6.406 and 4.294
same,DMSO-normalized antiproliferation,[4]; log10[compound] (M) -6.69897,25.9066 and 20.9075 and 21.5913 and 21.1711
same,DMSO-normalized antiproliferation,"[4]; log10[compound] (M) -6.69897, replicate values",8.244 and 7.637 and 8.006 and 6.772
same,DMSO-normalized antiproliferation,[4]; log10[compound] (M) -7.19897,27.2696 and 25.1897 and 32.757 and 26.1725
same,DMSO-normalized antiproliferation,"[4]; log10[compound] (M) -7.19897, replicate values",9.134 and 8.1 and 7.928 and 7.914
same,DMSO-normalized antiproliferation,[4]; log10[compound] (M) -7.69897,32.5281 and 28.8466 and 33.2484 and 29.8055
same,DMSO-normalized antiproliferation,"[4]; log10[compound] (M) -7.69897, replicate values",23.295 and 23.6499 and 25.1438 and 20.7638
same,DMSO-normalized antiproliferation,[4]; log10[compound] (M) -8.19897,71.5602 and 70.7086 and 72.3533 and 72.4741
same,DMSO-normalized antiproliferation,"[4]; log10[compound] (M) -8.19897, replicate values",58.7893 and 63.6738 and 62.8905 and 55.3819
same,DMSO-normalized antiproliferation,[4]; log10[compound] (M) -8.69897,90.0484 and 84.5598 and 93.7922 and 91.6223
same,DMSO-normalized antiproliferation,"[4]; log10[compound] (M) -8.69897, replicate values",97.0333 and 109.013 and 119.265 and 75.6713
same,DMSO-normalized antiproliferation,[4]; log10[compound] (M) -9.19897,99.7014 and 102.892 and 91.8028 and 106.019
same,DMSO-normalized antiproliferation,"[4]; log10[compound] (M) -9.19897, replicate values",104.958 and 110.142 and 126.275 and 110.446
same,DMSO-normalized antiproliferation,"[4]; log10[compound] (M) -9.69897, replicate values",77.7582 and 88.137 and 113.958 and 92.6055
same,DMSO-normalized antiproliferation,"[4]; log10[compound] (M) -10.199, replicate values",96.7023 and 108.197 and 96.9121 and 90.9372
same,DMSO-normalized antiproliferation,[5]; [6],79.9207 and 69.7647 and 81.656 and 63.0972
same,DMSO-normalized antiproliferation,[5]; [7],90.8255 and 93.4576 and 97.8876 and 88.6015
same,DMSO-normalized antiproliferation,[5]; [8],116.805 and 103.649 and 110.913 and 111.967
same,DMSO-normalized antiproliferation,[5]; [9],115.092 and 118.114 and 123.495 and 124.235
same,DMSO-normalized antiproliferation,[5]; [10],125.383 and 125.544 and 131.956 and 99.7395
same,DMSO-normalized antiproliferation,"[5]; log10[compound] (M) -8.19897, single replicates",91.6326 and 122.778 and 124.271 and 121.832
same,DMSO-normalized antiproliferation,"[5]; log10[compound] (M) -8.69897, single replicates",107.048 and 111.088 and 112.061 and 114.671
same,DMSO-normalized antiproliferation,"[5]; log10[compound] (M) -9.19897, single replicates",123.177 and 113.909 and 103.784 and 113.953
same,DMSO-normalized antiproliferation,"[5]; log10[compound] (M) -9.69897, single replicates",118.276 and 100.412 and 114.859 and 101.744
same,DMSO-normalized antiproliferation,"[5]; log10[compound] (M) -10.199, single replicates",96.4797 and 95.686 and 104.084 and 100.448
